Test system: odorant receptors (ORs) expressed by OSNs
Test: pS6-IP-Seq: identification of ORs activated by odorants in vivo
Parameters: species or system mouse
Settings: for ORs identified as responsive by pS6-IP-Seq: responsive = log2FC>0 and FDR<0.05
Experimental: Phosphorylated S6 Ribosomal Capture (pS6-IP)
Mice used for pS6-IP were ˜3 weeks old, mixed sex, and littermates. Mice were killed by CO2 asphyxiation and cervical dislocation. Olfactory tissue was rapidly dissected in Buffer B (2.5 mM HEPES KOH pH 7.4, 0.63% glucose, 100 g/mL cycloheximide, 5 mM sodium fluoride, 1 mM sodium orthovanadate, 1 mM sodium pyrophosphate, 1 mM β-glycerophosphate, in Hank's balanced salt solution). Tissue pieces were then minced in 1.35 mL Buffer C (150 mM KCl, 5 mM MgCl2, 10 mM HEPES KOH pH 7.4, […], 2 mM DTT, 100 U/mL RNAsin, 100 µg/mL cycloheximide, protease inhibitor cocktail, 5 mM sodium fluoride, 1 mM sodium orthovanadate, 1 mM sodium pyrophosphate, 1 mM β-glycerophosphate) and subsequently transferred to homogenization tubes for steady homogenization at 250 rpm three times and at 750 rpm nine times at 4° C. […] This solution was mixed and then clarified at a max speed (17,000×g) for 10 min at 4° C. The resulting high-speed supernatant was transferred to a new tube where 20 μL was saved and transferred to a tube containing 350 L buffer RLT. To the remainder of the sample, 1.3 μL of 100 μg/mL cycloheximide, 27 μL of phosphatase inhibitor cocktail (250 mM sodium fluoride, 50 mM sodium orthovanadate, 50 mM sodium pyrophosphate, 50 mM β-glycerophosphate) and 6 μL of anti-pS6 antibody (Cell Signaling D68F8) were added. The sample was gently rotated for 90 min at 4° C. To prepare beads, 100 L of beads (Invitrogen 10002D) was washed three times with 900 L of buffer A (150 mM KCl, 5 mM MgCl2, 10 mM HEPES KOH pH 7.4, 10% NP40, 10% BSA), and once with 500 L of buffer C. Sample homogenate was added to the beads and incubated with gentle rotation for 60 min at 4° C. Following incubation, beads were washed with four times with 700 μL of buffer D (350 mM KCl, 5 mM MgCl2, 10 mM HEPES KOH pH 7.4, 10% NP40, 2 mM DTT, 100 U/mL RNAsin, 100 μg/mL cycloheximide, 5 mM sodium fluoride, 1 mM sodium orthovanadate, 1 mM sodium pyrophosphate, 1 mM β-glycerophosphate). During the final wash, beads were moved to room temperature, wash buffer was removed, and […] of buffer RLT was added. Beads were incubated in buffer RLT for 5 min at room temperature. Buffer RLT containing immunoprecipitated RNA was then eluted and stored at −80° C. until clean up using a kit (Qiagen 74004). cDNA was generated using 11 rounds of amplification with 10 ng RNA input. […] Libraries were sequenced on either HiSeq 2000/2500 (50 base pair single read mode) or NextSeq 500 (75 base pair single read mode) with 6-12 pooled indexed libraries per lane.
Reads mapping to Olfr290 were inferred from ENSMUSG00000070459, with the rationale that this gene model included ENSMUSG00000116179 plus untranslated regions. […] Intact Olfr genes with identifiable sequences were filtered, and p-values were then re-corrected by FDR. […] Raw and processed RNA-Seq datasets generated as part of this study are available from NCBI GEO at accession GSE185415.
First, ORs activated by a set of 61 odorants at various concentrations were determined by leveraging pS6-IP-Seq. […] ORs were considered odor-responsive if enrichment values (log2FC) were positive with a false discovery rate (FDR)<0.05.

Structure (SMILES) | ORs identified as responsive by pS6-IP-Seq (odorant at 1%) | also measured
C=C(C)C1CCC(C)C(O)C1 (single isomer, unassigned; (+)) [(+)-dihydrocarveol] | no ORs were identified as responsive | –
C=C(C)C1CCC(C)C(O)C1 (single isomer, unassigned; (-)) [(−)-dihydrocarveol] | no ORs were identified as responsive | –
CC(=O)c1ccccc1O [2′-hydroxyacetophenone] | – | number of ORs identified as responsive, relative to the mean (odorant at 1%, excluded from all analysis): more than five standard deviations away from the mean
C=C1CC/C=C(\C)CC[C@@H]2[C@@H]1CC2(C)C [P-Caryophyllene] | no ORs were identified as responsive | –
C[C@]12CCC(=O)C[C@@H]1CC[C@@H]1[C@@H]2CC[C@]2(C)C=CC[C@@H]12 [androstenone] | – | ORs identified as responsive by pS6-IP-Seq (odorant at 3 mM): no ORs were identified as responsive
CSC [dimethyl sulfide] | no ORs were identified as responsive | –
CC(C)=CCC/C(C)=C/CO [geraniol] | no ORs were identified as responsive | –
c1ccc2[nH]ccc2c1 [indole] | no ORs were identified as responsive | –
CCC(=O)O [propionic acid] | no ORs were identified as responsive | –

— patent US20250052763A1, “COMPOSITIONS AND METHODS FOR IDENTIFYING LIGANDS OF ODORANT RECEPTORS” (Duke University, priority 2021, published 2025)
